In patent US8877786B2, “Substituted carbamoylmethylamino acetic acid derivatives as novel NEP inhibitors” (Novartis AG, priority 2009, dated 2014) one finds IC50 data, which are given here for five compounds.

pIC50: −log10 of the molar value.

The pIC50 is −log10 of the IC50, conventionally taken in molar units.

The target of this test is recombinant human neutral endopeptidase (NEP, EC 3.4.24.11) (Homo sapiens (Human), UniProt P08473). Briefly: in vitro inhibition of recombinant human neutral endopeptidase (fluorescence lifetime assay). It is filed as biochemical. Conditions: recombinant human NEP 7 pM, 1 hour pre-incubation at room temperature, pH 7.4, substrate Cys(PT14)-Arg-Arg-Leu-Trp-OH 0.7 μM, FLT read after 1 hour. From the text: The activity of a compound according to the present invention can be assessed by the following in vitro & in vivo methods and/or by the following in vitro & in vivo methods well-described in the art. See A fluorescence lifetime-based assay for protease inhibitor profiling on human kallikrein 7 Doering K, Meder G, Hinnenberger M, Woelcke J, Mayr L M, Hassiepen U Biomol Screen.
Sequence of recombinant human neutral endopeptidase (NEP, EC 3.4.24.11) (P08473 whole entry): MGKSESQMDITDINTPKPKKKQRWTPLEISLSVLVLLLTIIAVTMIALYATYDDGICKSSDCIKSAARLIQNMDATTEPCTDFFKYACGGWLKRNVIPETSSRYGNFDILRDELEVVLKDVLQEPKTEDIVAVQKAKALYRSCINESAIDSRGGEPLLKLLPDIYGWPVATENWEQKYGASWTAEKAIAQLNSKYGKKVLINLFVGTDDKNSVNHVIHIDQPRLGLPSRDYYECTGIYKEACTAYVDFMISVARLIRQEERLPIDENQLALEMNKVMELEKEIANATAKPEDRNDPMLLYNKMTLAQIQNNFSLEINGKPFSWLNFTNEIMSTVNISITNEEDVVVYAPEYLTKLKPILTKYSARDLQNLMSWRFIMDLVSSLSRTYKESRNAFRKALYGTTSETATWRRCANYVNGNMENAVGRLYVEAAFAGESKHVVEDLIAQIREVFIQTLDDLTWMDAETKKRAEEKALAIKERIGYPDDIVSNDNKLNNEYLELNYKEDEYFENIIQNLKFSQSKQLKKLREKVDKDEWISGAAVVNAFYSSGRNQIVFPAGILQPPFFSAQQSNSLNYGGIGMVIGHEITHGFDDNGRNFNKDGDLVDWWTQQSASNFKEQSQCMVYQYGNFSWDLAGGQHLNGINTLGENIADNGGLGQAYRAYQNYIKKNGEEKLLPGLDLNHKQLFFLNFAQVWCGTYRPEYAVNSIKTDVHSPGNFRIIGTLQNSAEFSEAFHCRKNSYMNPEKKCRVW
In the case of `C[C@H](N[C@@H](Cc1ccc(-c2cccc(Cl)c2)cc1)C(=O)Nc1nnn[nH]1)C(=O)O` [Example 3-1, (S)-2-[(S)-2-(3′-chloro-biphenyl-4-yl)-1-(1H-tetrazol-5-ylcarbamoyl)-ethylamino]-propionic acid], the pIC50 is 10.05.
In the case of `C[C@H](N[C@@H](Cc1ccc(-c2cccc(Cl)c2)cc1)C(=O)Nc1cc(O)no1)C(=O)O` [Example 3-7, (S)-2-[(S)-2-(3′-Chloro-biphenyl-4-yl)-1-(3-hydroxy-isoxazol-5-ylcarbamoyl)-ethylamino]-propionic acid] it was 8.62; in that of `O=C(O)[C@H](CCc1ccccc1)N[C@@H](Cc1ccc(-c2cccc(Cl)c2)cc1)C(=O)Nc1nnn[nH]1` [Example 3-12, (S)-2-[(S)-2-(3′-Chloro-biphenyl-4-yl)-1-(1H-tetrazol-5-ylcarbamoyl)-ethylamino]-4-phenyl-butyric acid], 9.70; in that of `C[C@H](N[C@@H](Cc1ccc(-c2ccccc2)cc1)C(=O)Nc1nnn[nH]1)C(=O)O` [Example 3-4, (S)-2-[(S)-2-Biphenyl-4-yl-1-(1H-tetrazol-5-ylcarbamoyl)-ethylamino]-propionic acid], 7.96.
The result for `C[C@H](N[C@@H](Cc1ccc(-c2cc(Cl)ccc2Cl)cc1)C(=O)Nc1nnn[nH]1)C(=O)O` [Example 3-2, (S)-2-[(S)-2-(2′,5′-dichloro-biphenyl-4-yl)-1-(1H-tetrazol-5-ylcarbamoyl)-ethylamino]-propionic acid] reads 9.52.
